Laboratory results from patent US4606856A, “[Des-1-amino, 8-glycine]calcitonin” (priority 1985, dated 1986).

Assays:
[1] = system: serum calcium concentration; settings: standard salmon calcitonin used in the assay; cited from earlier work
[2] = system: serum calcium concentration; experiment: Biological assay of calcitonin analogs in vivo: reduction of serum calcium concentration, 2×2 parallel line assay; settings: rats, subcutaneous injection, serum calcium 1 hour later, compared with synthetic salmon calcitonin standard
Procedure: Rats were divided into four groups of seven animals, and each group was assigned at random to a dose of standard or test solution. Low and high doses were chosen from the linear portion of the dose-response curve. For the salmon calcitonin standard, the values were 0.7 and 2.1 ng. peptide/100 g. body weight (BW). This dose approximates 3 and 9 MU/100 g. BW. Peptides were given by subcutaneous injection (0.2 ml/100 g. BW) and blood was withdrawn 1 hour later for serum calcium determination. Sera are processed and analyzed within two hours of collection. Results were analyzed within two hours of collection. Results were analyzed by a 2×2 parallel line assay [Gaddum, J. H., J. Pharm.

Row | Substance | biological potency of the standard, independently determined [1] | biological potency [2]
1 | Salmon calcitonin [standard salmon calcitonin] | greater than 4,000 IU/mg | 
2 | [Des-1-Amino, 8-Glycine]salmon calcitonin [[Des-1-Amino, Gly^8]SCT] |  | 4750 IU/mg
